# Measurements reported in patent US20180007899A1, “HERBICIDAL COMPOSITIONS COMPRISING OXYFLUORFEN AND HALOXYFOP” (Dow AgroSciences LLC, priority 2012, published 2018).
# Columns and labels:
# Assay in all cases: Post-emergence field trial in onion, visual weed control
# Assay type in all cases: in vivo
# [1] = tested on: annual bluegrass (Poa annua L.), POAAN; conditions: 15 days after application
# Description: (§1) Multiple post-emergence field trials were conducted under field conditions in Colombia, Peru and Ecuador. Trial sites were located in commercially grown fields of onion (Allium spp) using standard herbicide small plot research methodology. Post-emergence trial plot size varied from 0.4 to 2 meter (m)×5 to 25 m (width×length) with 4 replicates per treatment. The onion crop was grown using normal cultural practices for fertilization, seeding, watering and maintenance to ensure good growth of the crop and the weeds.
# (§2) All treatments in the post-emergence field trials were applied using a backpack compressed carbon dioxide (CO2) sprayer with flat fan nozzles calibrated to apply 400 liters per hectare (L/ha) spray volume at approximately 35 pounds per square inch (psi) nozzle pressure. Commercially available products of oxyfluorfen (GOAL® 480SC 480 grams active ingredient per liter (g ai/L) and haloxyfop-methyl (VERDICT R® 42 g ai/L) were mixed in water at appropriate formulated product rates to achieve the desired rates based on a unit area of application (hectare). Treatments were rated at 7 to 31 days after application (DAA) as compared to the untreated control plants. Visual weed control was scored on a scale of 0 to 100 percent where 0 corresponds to no injury and 100 corresponds to complete kill.
# (§3) All treatment results, both for the single product and mixtures, are an average of 4 replicates. The trial sites had naturally occurring populations of weeds. The weed spectrum included, but was not limited to, AMBEL, BIDPI, BRSRA, GASPA, ELEIN, LOLTE, POANN, and SETVE.
# (§4) Colby's equation was used to determine the herbicidal effects expected from the mixtures (Colby, S. R. Calculation of the synergistic and antagonistic response of herbicide combinations. Weeds 1967, 15, 20-22.).
# (§5) The following equation was used to calculate the expected activity of mixtures containing two active ingredients, A and B:
# (§6) A=observed efficacy of active ingredient A at the same concentration as used in the mixture.
# (§7) B=observed efficacy of active ingredient B at the same concentration as used in the mixture.
# [2] = tested on: smallflower galinsoga (Galinsoga parviflora), GASPA; conditions: 15 days after application
# Description: as §1, §2, §3, §4, §5, §6, §7
# [3] = tested on: birdsrape mustard (Brassica rapa), BRSRA
# Description: as §1, §2, §3, §4, §5, §6, §7
# [4] = tested on: bristly foxtail (Setaria verticillata), SETVE; conditions: 7 days after application
# Description: as §1, §2, §3, §4, §5, §6, §7
# [5] = tested on: goosegrass (Eleusine indica), ELEIN; conditions: 7 days after application
# Description: as §1, §2, §3, §4, §5, §6, §7
# [6] = tested on: hairy beggarticks (Bidens pilosa), BIDPI
# Description: as §1, §2, §3, §4, §5, §6, §7
# [7] = tested on: poison ryegrass (Lolium temulentum), LOLTE; conditions: 15 days after application
# Description: as §1, §2, §3, §4, §5, §6, §7
# [8] = tested on: common ragweed (Ambrosia artemisiifolia L.), AMBEL; conditions: 15 days after application
# Description: as §1, §2, §3, §4, §5, §6, §7
# [9] = oxyfluorfen 120 g ai/ha, haloxyfop-methyl 0, foliar
# [10] = oxyfluorfen 240 g ai/ha, haloxyfop-methyl 0, foliar
# [11] = oxyfluorfen 360 g ai/ha, haloxyfop-methyl 0, foliar
# [12] = 16 days after application, oxyfluorfen 120 g ai/ha, haloxyfop-methyl 0, foliar
# [13] = 16 days after application, oxyfluorfen 240 g ai/ha, haloxyfop-methyl 0, foliar
# [14] = 16 days after application, oxyfluorfen 360 g ai/ha, haloxyfop-methyl 0, foliar
# [15] = 31 days after application, oxyfluorfen 120 g ai/ha, haloxyfop-methyl 0, foliar
# [16] = 31 days after application, oxyfluorfen 240 g ai/ha, haloxyfop-methyl 0, foliar
# [17] = 31 days after application, oxyfluorfen 360 g ai/ha, haloxyfop-methyl 0, foliar
# [18] = oxyfluorfen 0, haloxyfop-methyl 42 g ai/ha, foliar
# [19] = 16 days after application, oxyfluorfen 0, haloxyfop-methyl 42 g ai/ha, foliar
# [20] = 31 days after application, oxyfluorfen 0, haloxyfop-methyl 42 g ai/ha, foliar
smiles,measurement,setting,value
"CCOc1cc(Oc2ccc(C(F)(F)F)cc2Cl)ccc1[N+](=O)[O-] [Oxyfluorfen, 2-chloro-1-(3-ethoxy-4-nitrophenoxy)-4-(trifluoromethyl)benzene]",Visual Control (%) Obs,[1]; [9],45%
same,Visual Control (%) Obs,[1]; [10],45%
same,Visual Control (%) Obs,[1]; [11],47%
same,Visual Control (%) Obs,[2]; [9],49%
same,Visual Control (%) Obs,[2]; [10],47%
same,Visual Control (%) Obs,[2]; [11],45%
same,Visual Control (%) Obs,[3]; [12],70%
same,Visual Control (%) Obs,[3]; [13],74%
same,Visual Control (%) Obs,[3]; [14],85%
same,Visual Control (%) Obs,[3]; [15],74%
same,Visual Control (%) Obs,[3]; [16],79%
same,Visual Control (%) Obs,[3]; [17],86%
same,Visual Control (%) Obs,[4]; [11],70%
same,Visual Control (%) Obs,[5]; [11],47%
same,Visual Control (%) Obs,[6]; [12],49%
same,Visual Control (%) Obs,[6]; [13],56%
same,Visual Control (%) Obs,[6]; [14],69%
same,Visual Control (%) Obs,[6]; [15],54%
same,Visual Control (%) Obs,[6]; [16],61%
same,Visual Control (%) Obs,[6]; [17],69%
same,Visual Control (%) Obs,[7]; [9],21%
same,Visual Control (%) Obs,[7]; [10],22%
same,Visual Control (%) Obs,[7]; [11],22%
same,Visual Control (%) Obs,[8]; [9],21%
same,Visual Control (%) Obs,[8]; [10],22%
same,Visual Control (%) Obs,[8]; [11],22%
COC(=O)C(C)Oc1ccc(Oc2ncc(C(F)(F)F)cc2Cl)cc1 (stereo not drawn) [Haloxyfop-methyl],Visual Control (%) Obs,[1]; [18],5%
same,Visual Control (%) Obs,[2]; [18],6%
same,Visual Control (%) Obs,[3]; [19],0%
same,Visual Control (%) Obs,[3]; [20],0%
same,Visual Control (%) Obs,[4]; [18],77%
same,Visual Control (%) Obs,[5]; [18],6%
same,Visual Control (%) Obs,[6]; [19],0%
same,Visual Control (%) Obs,[6]; [20],0%
same,Visual Control (%) Obs,[7]; [18],4%
same,Visual Control (%) Obs,[8]; [18],6%
